Data on one molecule can be found in patent US20180057530A1, “CYCLIC PEPTIDE COMPOUND, AND PREPARATION AND USE THEREOF” (Zhejiang Hisun Pharmaceutical Co., Ltd., priority 2015, published 2018).

Marks after values point to notes of the source that are not given here.

Series [1] deals with human lung cancer cells (A549). The series is described as follows: MTT tumor cell growth inhibition, A549. It counts as cell-based. The note with it: 72 hours, relative IC50. The source says:
(§1) The tetrazolium salt (MTT) reduction method was used to test the activity of the compounds of the present invention. Human breast cancer cells (MDA-MB-231) (CAS cell library; catalog number: TCHu227), human lung cancer cells (A549) (ATCC® Number: CRM-CCL-185™), human colon cancer cells (HCT-116) (CAS cell library; catalog number: TCHu99), acute monocytic leukemia cells (MV4-11) (ATCC® Number: CRL-9591™), tissue cell lymphoma cells (U-937) (CAS cell library; catalog number: TCHu159), human acute promyelocytic leukemia cells (HL-60) (ATCC® Number: CCL-240™), chronic myelogenous leukemia cells (of K562) (CAS cell library; catalog number: TCHu191), human hepatocellular carcinoma cells (BEL-7404) (CAS cell library; catalog number: TCHu64), human pancreatic cancer cells (BxPC3) (ATCC® Number: […])) and human prostate cancer cells (PC-3) (ATCC®Number: […]) were inoculated in 96-well plates, 90 μL/well, with 3000 to 8000 cells in respective well; in the first row of plate, 100 μL/well culture medium was added; the 96-well plate was pre-incubated in an incubator at 37° C., 5% CO2, and 100% relative humidity for 24 hours.
(§2) A compound was weighed and configured to a 10 mM/L stock solution, and the compound was diluted three-fold sequentially from the highest concentration of 2 millimoles (mM); 95 μl the corresponding cell medium was added to each well of a V-bottom dispensing plate; 5 μl of the compound on a 200× plate was transferred to a 10× dispensing plate according to the concentration; 5 μl of dimethylsulfoxide (DMSO) was evenly mixed in the corresponding 95 μl cell culture medium as a vehicle control. 10 μl of the compound-medium in each well of the 10× dispensing plate was added to a 96-well plate already plated with cells. […]
(§3) After the compound for cells was treated for 72 hours, 20 microliters of 5 mg/ml MTT was added to each well; all the steps need to be aseptic. […] The absorbance at 490 nm was read on a SpectraMax M2e instrument. The compound activity (relative IC50) was calculated using GraphPad Prism software.

The test system of series [2] is chronic myelogenous leukemia cells (K562). The series is described as follows: MTT tumor cell growth inhibition, K562. It counts as cell-based. The note with it: Homo sapiens, 72 hours, relative IC50.
Description: as §1, §2, §3

Series [3] concerns human pancreatic cancer cells (BxPC3). The series is described as follows: MTT tumor cell growth inhibition, BxPC3. The format is cell-based. To be noted: BXPC-3, 72 hours, relative IC50.
Description: as §1, §2, §3

The subject of series [4] is human colon cancer cells (HCT-116). The series is described as follows: MTT tumor cell growth inhibition, HCT-116. The note with it: HCT-116, MTT, 72 hours, relative IC50. It counts as cell-based.
Description: as §1, §2, §3

For another series, the system named is blood cells. The series is described as follows: Effect on blood phase, complete blood count (CBC) analysis. The format is in vivo, BAB-C mice. To be noted: mice, 0.5 mg/kg; for PLT / RBC / WBC: mean±SD. The protocol: BAB-C mice (6 to 8 weeks old, a half being males and the other half females, weighing about 18 g-25 g, supplier: Beijing Vital River Laboratory Animal Technology Co., Ltd.) were raised for one week and then divided into three groups: normal control group, Romidepsin group, and compound A group. The normal group was injected with the vehicle; the drug group was injected with 0.5 mg/kg of the drug; 24 hours and 48 hours respectively after administration, a complete blood count (CBC) analysis was performed; for all the data, mean±standard deviation (mean±SD) was adopted; T tests were performed between inter-group data.

Series [5] concerns Human breast cancer cell line MDA-MB-231. The series is described as follows: In vivo pharmacodynamic study of compound A, MDA-MB-231 nude mice transplanted tumor model. The arrangement: species or system BALB/C nude mice. To be noted: MDA-MB-231 model, 2.4 mg/kg, q4d, 4x. The protocol:
Female BALB/C nude mice 6 weeks to 8 weeks old and weighing about 19 g to 29 g were taken (Supplier: Beijing Vital River Laboratory Animal Technology Co., Ltd.) and raised for a week. A human cancer nude mice […] transplanted tumor model was established: Human breast cancer cell line MDA-MB-231 (ATCC® Number: HTB-26™) and human lung cancer cell line NCI-H460 (ATCC® Number: HTB-177™) were incubated. The monolayer tumor cells were digested and detached; then, they were collected and resuspended in a serum-free culture medium, and then were adjusted to a concentration of 2×10^6/0.2 mL. They were put into an iced box and brought to an animal house. A syringe with a No. 6 needle was used to directly take a 0.2 mL cell suspension and transplanted it into the rear subcutaneous scapular regions of the left axillaries of the nude mice at 2×10^6/0.2 mL per mouse. Tumor volumes were measured once every 2 days to 3 days. After two weeks, tumor-bearing nude mice with vigorous tumor growth and no ulceration were selected, the tumors were removed from them under sterile conditions. The tumor tissues were cut to about 2 mm to 3 mm in diameter and inoculated in the rear subcutaneous scapular regions of the left axillaries of the nude mice. After passage for three generations, when the tumor volume grew to 100 mm^3, nude mice with tumor masses that were too large or too small were removed and randomly grouped for administration.
The mice were randomly divided into five groups, including the negative control group (vehicle), positive control group (Romidepsin, 2.4 mg/kg), treatment group with the high, medium, and low doses of compound A (respectively 7.2 mg/kg, 4.8 mg/kg, 2.4 mg/kg, wherein the high dose was lower than the maximum tolerated dose, MTD); there were six nude mice in each group; intravenous administration was given every 4 days; 4 doses were given. During the period, the weights and tumor volumes of the animals were measured every 2 days, and the number of animal deaths was recorded. 24 hours after the last administration, the animals were sacrificed. The tumor volumes, tumor weights, and body weights of nude mice were measured; tumor volume growth curves, nude mice weight growth curves and tumor inhibition rates, mortality of the animals were plotted; the relative tumor proliferation rate T/C (%) was calculated; according to the formula T/C (%)=TRTV/CRTV*100%. (TRTV: treatment group RTV; CRTV: negative control group RTV, relative tumor volume RTV=Vt/V0, wherein V0 is the tumor volume at the time of administration by group; Vt is the post-administration tumor volume).

Series [6] concerns human acute promyelocytic leukemia cells (HL-60). The series is described as follows: MTT tumor cell growth inhibition, HL-60. It counts as cell-based. The note with it: HL-60, MTT, 72 hours, relative IC50.
Description: as §1, §2, §3

Usually IC50 stands for the concentration at which inhibition is half-maximal. The low end stands for higher potency, the high end for lower potency. In the case of `C/C=C1\NC(=O)[C@H]2CSSCC/C=C/[C@H](CC(=O)N[C@H](C(C)C)C(=O)N2)OC(=O)[C@H](C(C)C)NC1=O` [Romidepsin, reference compound], the IC50 in series [1] is 5.2 nM; in series [2], 4.1 nM; in series [3], 8.7 nM; in series [4], 6.5 nM; in series [6] it was 8.6 nM. Further, the PLT is 600.56 ± 71.51** 1 × 10*9/L in the series on blood cells (24 h after administration) and 431.31 ± 64.96** 1 × 10*9/L with blood cells (48 h after administration). The figures for the RBC in the series with blood cells (24 h after administration) and in the series with blood cells (48 h after administration) were 10.30 ± 0.47 1 × 10*12/L and 10.23 ± 0.78 1 × 10*12/L, respectively. Further, the WBC in the series on blood cells (24 h after administration) is listed as 4.32 ± 2.61** 1 × 10*9/L; in the series with blood cells (48 h after administration) it was 6.92 ± 3.29** 1 × 10*9/L. This molecule registered a WBC count decrease in the series with blood cells (at 24 h, vs normal group) of 75%. The “PLT compared with the normal group” value in the series on blood cells (at 24 h and 48 h) was “significantly decreased”. Moreover, in the series on blood cells (at 48 h), the “WBC count restored to percent of the normal group” value came out at 40%. The “Relative tumor proliferation rates T/C (%)” value in series [5] is on record as 48.9%(2.4 mg/kg, q4d, 4x).
